Each structure is given as a SMILES string.

In the test the target is T1, Tyrosine-protein phosphatase non-receptor type 11 (Homo sapiens, UniProt Q06124).
T1 sequence (Q06124 whole entry): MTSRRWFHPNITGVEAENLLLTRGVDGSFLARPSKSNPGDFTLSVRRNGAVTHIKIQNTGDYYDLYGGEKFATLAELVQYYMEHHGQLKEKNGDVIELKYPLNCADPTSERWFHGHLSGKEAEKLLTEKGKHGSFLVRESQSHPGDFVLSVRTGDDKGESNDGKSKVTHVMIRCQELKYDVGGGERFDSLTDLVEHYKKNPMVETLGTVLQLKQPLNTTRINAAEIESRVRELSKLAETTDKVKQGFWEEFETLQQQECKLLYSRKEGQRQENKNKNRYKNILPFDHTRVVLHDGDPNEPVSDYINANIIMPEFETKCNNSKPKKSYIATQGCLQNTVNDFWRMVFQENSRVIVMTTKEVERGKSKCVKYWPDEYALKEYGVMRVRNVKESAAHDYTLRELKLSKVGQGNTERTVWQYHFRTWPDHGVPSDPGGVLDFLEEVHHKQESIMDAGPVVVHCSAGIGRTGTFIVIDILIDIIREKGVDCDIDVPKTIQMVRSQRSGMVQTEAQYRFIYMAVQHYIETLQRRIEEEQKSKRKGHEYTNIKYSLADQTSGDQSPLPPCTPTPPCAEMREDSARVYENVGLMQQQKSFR
In words: Assay for the inhibitory effect on the SHP2 enzyme. The procedure:
A mixed liquor of 2× working SHP2 reagent (0.4 nM) and 0.5 μM SHP-2 activated peptide (BPS bioscience #79319-2) was prepared with 1× enzyme buffer. After the above-mixed liquor was incubated at 25° C. for 60 minutes, 5 μL of activated SHP2 kinase solution was transferred with a pipettor to the compound wells and the Max control wells (Corning, #4514) of the plate. Then 5 μL of 1× kinase buffer was transferred to the Min control wells. The plate was centrifuged at 1000 rpm for 30 seconds, sealed, and incubated in a 25° C. constant-temperature incubator for 30 minutes. A substrate solution of DiFMUP (#D6567, Invitrogen™) was prepared with 1× kinase buffer, and its concentration should be 2 times as the final concentration of the assay (DiFMUP final concentration: 10 μM). 5 μL of the prepared substrate solution was transferred with an electric pipettor into each well of the ELISA plate to start the reaction. The plate was centrifuged at 1000 rpm for 30 seconds, sealed, and incubated in a 25° C. constant-temperature incubator for 60 minutes. Read the plate at the excitation/emission wavelength of 358/455 nm after the ELISA plate was placed on the Spark machine.

As for `COC(=O)c1nc(Sc2cccc(-c3ccn(C)n3)c2Cl)cnc1N1CCC2(CC1)Cc1ccccc1[C@H]2N` [US20240376119, Example 19], the IC50 entry was “in the range around 20 nM”.

The record behind these values is BindingDB's records for patent US20240376119 (Cspc Zhongqi Pharmaceutical Technology (Shijiazhuang), 2024).
